Test results published in patent US9393271B2, “GHRH agonists for islet cell transplantation and function and the treatment of diabetes” (UNIVERSITY OF MIAMI, priority 2012, dated 2016).
Non-standard residues stand in square brackets, D forms with d. Residues, ends and D or L forms follow the SMILES beside them. *: point of attachment. Desaminotyrosyl = O=C(CCc1ccc(O)cc1)*; hArg = N=C(N)NCCCC[C@H](N)C(=O)O; Agmatine = N=C(N)NCCCCN*; Nle = CCCC[C@H](N)C(=O)O; Orn = NCCC[C@H](N)C(=O)O; Abu = CC[C@H](N)C(=O)O; Aoc = NCCCCCCCC(=O)O; GABA = NCCCC(=O)O

What was measured:
[1] = molecular target: T1, GHRH receptor (human pituitary membrane homogenates) (Homo sapiens, UniProt Q02643); assay: GHRH receptor binding, ligand competition with 125I-labeled [His1,Nle27]hGHRH(1-32)NH2 (Table 6); conditions: for Relative affinitiy (Binding potency) vs GHRH: GHRH(1-29) = 1; for Relative affinitiy (Binding potency) vs JI-38: JI-38 = 1
T1 sequence (Q02643 23-423): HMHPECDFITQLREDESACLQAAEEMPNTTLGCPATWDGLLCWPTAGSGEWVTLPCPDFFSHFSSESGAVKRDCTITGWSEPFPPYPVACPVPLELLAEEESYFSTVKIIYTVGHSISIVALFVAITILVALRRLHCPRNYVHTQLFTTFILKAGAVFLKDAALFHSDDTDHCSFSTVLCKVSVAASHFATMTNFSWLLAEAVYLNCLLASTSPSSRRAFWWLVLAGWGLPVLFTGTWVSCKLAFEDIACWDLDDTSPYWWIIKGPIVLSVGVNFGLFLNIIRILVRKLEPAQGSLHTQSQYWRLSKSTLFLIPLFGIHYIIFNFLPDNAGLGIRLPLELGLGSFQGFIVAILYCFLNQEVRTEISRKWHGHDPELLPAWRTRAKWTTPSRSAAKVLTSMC

GH level = assay: In vivo endocrine activity (GH release), subcutaneous administration; conditions: rat, s.c.
Experimental: Subcutaneous Administration. Adult male rats were used and anesthetized with pentobarbital (6 mg/100 g, b.w.), by i.p. injection. […] Blood samples were taken from the jugular vein 5, 15 and/or 30 minutes after the injection. The blood samples were centrifuged, plasma was removed and the GH level was measured by ELISA. The results are summarized in terms of potency in Table 9.

[2] = molecular target: T1, GHRH receptor (human pituitary membrane homogenates); assay: GHRH receptor binding, ligand competition with 125I-labeled JV-1-42 (Table 5); conditions: for Relative affinitiy (Binding potency) vs GHRH: GHRH(1-29) = 1; for Relative affinitiy (Binding potency) vs JI-38: JI-38 = 1
Excerpt: Normal human pituitaries were purchased from the National Hormone and Peptide Program (A. F. Parlow, Los Angeles, County Harbor-UCLA Medical Center, Torrance, Calif.).

[3] = molecular target: T1, GHRH receptor (human pituitary membrane homogenates); assay: GHRH receptor binding, ligand competition with 125I-labeled JV-1-42 (Table 7); parameters: Normal human pituitaries were purchased from the National Hormone and Peptide Program; tissue National Hormone and Peptide Program (A. F. Parlow, Harbor-UCLA Medical Center, Torrance, Calif.); host or cells: normal human pituitary, membrane fraction / homogenate; conditions: JI-38 = 1

Row | SMILES | Relative affinitiy (Binding potency) vs GHRH [1] | Relative affinitiy (Binding potency) vs JI-38 [1] | Stimulation of growth hormone levels after s.c. administration (comparison in words) (GH level) | Relative affinitiy (Binding potency) vs GHRH [2] | Relative affinitiy (Binding potency) vs JI-38 [2] | Relative affinitiy (Binding potency) vs JI-38 [3]
1 | CCCC[C@H](NC(=O)[C@@H](NC(=O)[C@H](CC(=O)O)NC(=O)[C@H](CCC(N)=O)NC(=O)[C@H](CC(C)C)NC(=O)[C@H](CC(C)C)NC(=O)[C@H](CCCN)NC(=O)[C@H](CCCNC(=N)N)NC(=O)[C@H](C)NC(=O)[C@H](CO)NC(=O)[C@H](CC(C)C)NC(=O)[C@H](CCC(N)=O)NC(=O)[C@H](CC)NC(=O)[C@H](CC(C)C)NC(=O)[C@@H](NC(=O)[C@H](CCCN)NC(=O)[C@H](CCCNC(=N)N)NC(=O)[C@H](Cc1ccc(O)cc1)NC(=O)[C@H](CO)NC(=O)[C@H](C)NC(=O)[C@@H](NC(=O)[C@H](Cc1ccccc1)NC(=O)[C@@H](NC(=O)[C@H](C)NC(=O)[C@H](CC(=O)O)NC(=O)[C@@H](C)NC(=O)CCc1ccc(O)cc1)[C@@H](C)CC)[C@@H](C)O)C(C)C)[C@@H](C)CC)C(=O)N[C@@H](CC(=O)O)C(=O)N[C@@H](CCCNC(=N)N)C(=O)N[C@@H](CCCCNC(=N)N)C(N)=O [Peptide P-23256, [Dat^1, D-Ala^2, Ala^8, Orn^12, Abu^15, Orn^21, Nle^27, Asp^28, Har^30]hGHRH(1-30)NH2] (Desaminotyrosyl-[dA]DAIFTASYR[Orn]VL[Abu]QLSAR[Orn]LLQDI[Nle]DR[hArg]-NH2) | 148.0 | 48.7 |  |  |  | 
2 | CCCC[C@H](NC(=O)[C@@H](NC(=O)[C@H](CC(=O)O)NC(=O)[C@H](CCC(N)=O)NC(=O)[C@H](CC(C)C)NC(=O)[C@H](CC(C)C)NC(=O)[C@H](CCCN)NC(=O)[C@H](CCCNC(=N)N)NC(=O)[C@H](C)NC(=O)[C@H](CO)NC(=O)[C@H](CC(C)C)NC(=O)[C@H](CCC(N)=O)NC(=O)[C@H](CC)NC(=O)[C@H](CC(C)C)NC(=O)[C@@H](NC(=O)[C@H](CCCN)NC(=O)[C@H](CCCNC(=N)N)NC(=O)[C@H](Cc1ccc(O)cc1)NC(=O)[C@H](CO)NC(=O)[C@H](CC(N)=O)NC(=O)[C@@H](NC(=O)[C@H](Cc1ccccc1)NC(=O)[C@@H](NC(=O)[C@H](C)NC(=O)[C@H](CC(=O)O)NC(=O)[C@@H](C)NC(=O)CCc1ccc(O)cc1)[C@@H](C)CC)[C@@H](C)O)C(C)C)[C@@H](C)CC)C(=O)N[C@@H](CC(=O)O)C(=O)N[C@@H](CCCNC(=N)N)C(=O)N[C@@H](CCCCNC(=N)N)C(N)=O [Peptide P-23252, [Dat^1-D-Ala^2, Orn^12, Abu^15, Orn^21, Nle^27, Asp^28, Har^30]hGHRH(1-30)NH2] (Desaminotyrosyl-[dA]DAIFTNSYR[Orn]VL[Abu]QLSAR[Orn]LLQDI[Nle]DR[hArg]-NH2) | 42.3 | 13.9 |  |  |  | 
3 | CCCC[C@H](NC(=O)[C@@H](NC(=O)[C@H](CC(=O)O)NC(=O)[C@H](CCC(N)=O)NC(=O)[C@H](CC(C)C)NC(=O)[C@H](CC(C)C)NC(=O)[C@H](CCCN)NC(=O)[C@H](CCCNC(=N)N)NC(=O)[C@H](C)NC(=O)[C@H](CO)NC(=O)[C@H](CC(C)C)NC(=O)[C@H](CCC(N)=O)NC(=O)[C@H](CC)NC(=O)[C@H](CC(C)C)NC(=O)[C@@H](NC(=O)[C@H](CCCN)NC(=O)[C@H](CCCNC(=N)N)NC(=O)[C@H](Cc1ccc(O)cc1)NC(=O)[C@H](CO)NC(=O)[C@H](CCC(N)=O)NC(=O)[C@@H](NC(=O)[C@H](Cc1ccccc1)NC(=O)[C@@H](NC(=O)[C@H](C)NC(=O)[C@H](CC(=O)O)NC(=O)[C@@H](C)NC(=O)CCc1ccc(O)cc1)[C@@H](C)CC)[C@@H](C)O)C(C)C)[C@@H](C)CC)C(=O)N[C@@H](CC(=O)O)C(=O)NCCCCNC(=N)N [Peptide P-20350, [Dat^1, D-Ala^2, Gln^8, Orn^12, Abu^15, Orn^21, Nle^27, Asp^28, Agm^29]hGHRH(1-29)] (Desaminotyrosyl-[dA]DAIFTQSYR[Orn]VL[Abu]QLSAR[Orn]LLQDI[Nle]D-Agmatine) |  |  | stimulated greater growth hormone levels than hGHRH or JI-38 | 101.5 | 42.7 | 8.37
4 | CCCC[C@H](NC(=O)[C@@H](NC(=O)[C@H](CC(=O)O)NC(=O)[C@H](CCC(N)=O)NC(=O)[C@H](CC(C)C)NC(=O)[C@H](CC(C)C)NC(=O)[C@H](CCCN)NC(=O)[C@H](CCCNC(=N)N)NC(=O)[C@H](C)NC(=O)[C@H](CO)NC(=O)[C@H](CC(C)C)NC(=O)[C@H](CCC(N)=O)NC(=O)[C@H](CC)NC(=O)[C@H](CC(C)C)NC(=O)[C@@H](NC(=O)[C@H](CCCN)NC(=O)[C@H](CCCNC(=N)N)NC(=O)[C@H](Cc1ccc(O)cc1)NC(=O)[C@H](CO)NC(=O)[C@H](CC(N)=O)NC(=O)[C@@H](NC(=O)[C@H](Cc1ccccc1)NC(=O)[C@@H](NC(=O)[C@H](C)NC(=O)[C@H](CC(=O)O)NC(=O)[C@@H](C)NC(=O)CCc1ccc(O)cc1)[C@@H](C)CC)[C@@H](C)O)C(C)C)[C@@H](C)CC)C(=O)N[C@@H](CO)C(=O)N[C@@H](CCCNC(=N)N)C(=O)N[C@@H](CCC(N)=O)C(=O)NCCCC(N)=O [Peptide P-29702, [Dat^1, D-Ala^2, Orn^12, Abu^15, Orn^21, Nle^27, Gln-Gab^30]hGHRH(1-30)NH2] (Desaminotyrosyl-[dA]DAIFTNSYR[Orn]VL[Abu]QLSAR[Orn]LLQDI[Nle]SRQ[GABA]-NH2) |  |  |  | 81.2 | 34.2 | 5.06
5 | CCCC[C@H](NC(=O)[C@@H](NC(=O)[C@H](CC(=O)O)NC(=O)[C@H](CCC(N)=O)NC(=O)[C@H](CC(C)C)NC(=O)[C@H](CC(C)C)NC(=O)[C@H](CCCN)NC(=O)[C@H](CCCNC(=N)N)NC(=O)[C@H](C)NC(=O)[C@H](CO)NC(=O)[C@H](CC(C)C)NC(=O)[C@H](CCC(N)=O)NC(=O)[C@H](CC)NC(=O)[C@H](CC(C)C)NC(=O)[C@@H](NC(=O)[C@H](CCCN)NC(=O)[C@H](CCCNC(=N)N)NC(=O)[C@H](Cc1ccc(O)cc1)NC(=O)[C@H](CO)NC(=O)[C@H](CC(N)=O)NC(=O)[C@@H](NC(=O)[C@H](Cc1ccccc1)NC(=O)[C@@H](NC(=O)[C@H](C)NC(=O)[C@H](CC(=O)O)NC(=O)[C@H](C)NC(=O)CCc1ccc(O)cc1)[C@@H](C)CC)[C@@H](C)O)C(C)C)[C@@H](C)CC)C(=O)N[C@@H](CC(=O)O)C(=O)NCCCCNC(=N)N [JI-34, reference compound] (Desaminotyrosyl-ADAIFTNSYR[Orn]VL[Abu]QLSAR[Orn]LLQDI[Nle]D-Agmatine; N-terminus and C-terminus assumed) | 4.32 |  |  |  |  | 
6 | CCCC[C@H](NC(=O)[C@@H](NC(=O)[C@H](CC(=O)O)NC(=O)[C@H](CCC(N)=O)NC(=O)[C@H](CC(C)C)NC(=O)[C@H](CC(C)C)NC(=O)[C@H](CCCN)NC(=O)[C@H](CCCNC(=N)N)NC(=O)[C@H](C)NC(=O)[C@H](CO)NC(=O)[C@H](CC(C)C)NC(=O)[C@H](CCC(N)=O)NC(=O)[C@H](CC)NC(=O)[C@H](CC(C)C)NC(=O)[C@@H](NC(=O)[C@H](CCCN)NC(=O)[C@H](CCCNC(=N)N)NC(=O)[C@H](Cc1ccc(O)cc1)NC(=O)[C@H](CO)NC(=O)[C@H](CCC(N)=O)NC(=O)[C@@H](NC(=O)[C@H](Cc1ccccc1)NC(=O)[C@@H](NC(=O)[C@H](C)NC(=O)[C@H](CC(=O)O)NC(=O)[C@@H](C)NC(=O)CCc1ccc(O)cc1)[C@@H](C)CC)[C@@H](C)O)C(C)C)[C@@H](C)CC)C(=O)N[C@@H](CC(=O)O)C(=O)N[C@@H](CCCNC(=N)N)C(=O)NCCCCCCCC(N)=O [Peptide P-21304, [Dat^1, D-Ala^2, Gln^8, Orn^12, Abu^15, Orn^21, Nle^27, Asp^28, Amc^30]hGHRH(1-30)NH2] (Desaminotyrosyl-[dA]DAIFTQSYR[Orn]VL[Abu]QLSAR[Orn]LLQDI[Nle]DR[Aoc]-NH2) | 74.0 | 24.4 |  |  |  | 
